For three molecules, EC50 results are on record in ChEMBL document CHEMBL1151317, “A new bromopyrrole alkaloid and the optical resolution of the racemate from the marine sponge homaxinella sp” (1998).

Molecules are shown by their SMILES. ≈ marks a conversion by molar mass, not a printed value.

For this assay, the system named is P388. The experiment in a line: Cytotoxicity against mouse P388 cells. The assay is classed as functional. Conditions: read-out: ED50 (the source's name).
Regarding `COCNC(=O)c1cc(Br)c(Br)[nH]1`, the EC50 turned out to be 21.5 µg/mL (≈ 68.9 µM).
Turning to `COC(=O)CC1CNC(=O)c2cc(Br)c(Br)n21` (racemic), the EC50 came out at 30 µg/mL (≈ 82 µM).
For the molecule `O=C1NCC(O)n2c1cc(Br)c2Br` (racemic) [LONGAMIDE], the EC50 is > 100 µg/mL.
